# Values of other authors in patent US20070122482A1, “Method for preparing modified release pharmaceutical compositions” (priority 2003, published 2007).
# Structures can show the parent of a compound that is named as a salt.
# Legend:
# [1] = for Solubility In Water: Table 2, Poorly-Soluble Drugs with Low Bioavailability
# [2] = Table 2
SMILES,Solubility In Water [1],Bioavailability [2],"Solubility in water ([1]; Table 1, Poorly-Soluble Drug Candidates)",Bioavailability (in words) [2]
CN1CCC[C@@H]1CCO[C@](C)(c1ccccc1)c1ccc(Cl)cc1 [Clemastine fumarate],Slightly soluble,Low (˜39%),,
COc1ccc(CCN2CCC(Nc3nc4ccccc4n3Cc3ccc(F)cc3)CC2)cc1 [Astemizole],Insoluble,,Insoluble,Low-moderate
CC1CC(OC(=O)C(O)c2ccccc2)CC(C)(C)C1 (stereo not shown) [Cyclandelate],Insoluble,,,Low
